Source: article PMC5681922, “Systemic Responses of Multidrug-Resistant Pseudomonas aeruginosa and Acinetobacter baumannii Following Exposure to the Antimicrobial Peptide Cathelicidin-BF Imply Multiple Intracellular Targets” (Frontiers in Cellular and Infection Microbiology, 2017)

Legend:
P. aeruginosa 1409 [1] = assay: Minimal inhibitory concentration (given as multiples of MIC); format: cell-based, Pseudomonas aeruginosa; settings: MDR clinical isolate; MIC itself not given, only this multiple
P. aeruginosa 1409 [2] = settings: treated vs untreated, iTRAQ
P. aeruginosa 1409 [3] = assay: Membrane permeabilization assay (propidium iodide); format: cell-based, Pseudomonas aeruginosa; settings: 1 h at 25°C in LB, then PI 10 μg/mL 30 min, fluorescence microscope
Description: Then, PI was added to a final concentration of 10 μg/mL. After 30 min of incubation at 25°C, the cells were washed 3 times with PBS and immediately imaged with a fluorescence microscope (Olympus, Japan) (Yu et al., [2015]).
Figure 3 Bacterial plasma membrane permeabilization assay of cathelicidin-BF. Cathelicidin-BF and levofloxacin were incubated with MDR P. aeruginosa in Luria-Bertani medium at final concentrations of 4 × MIC (minimal inhibitory concentration) or ¼ × MIC. After incubation at 25°C for 1 h, bacteria were collected by centrifugation at 3,000 × g for 5 min and resuspended with PBS. The DNA-binding fluorescent dye PI was added to a final concentration of 10 μg/mL. After 30 min incubation at 25°C, the cells were washed 3 times with PBS and immediately imaged using a fluorescence microscope.

[4] = cathelicidin-BF at 1/2 MIC (4 μg/mL), 37°C, 2 h
[5] = cathelicidin-BF change not categorized as differentially expressed

4 × MIC (P. aeruginosa 1409 [1]): 64 µg/mL | expression of protein Q9I3S7 (likely decarboxylase) (P. aeruginosa 1409 [2]; [4]): overexpressed | expression of protein Q9HTV3 (3-octaprenyl-4-hydroxybenzoate carboxy-lyase) (P. aeruginosa 1409 [2]; [5]): downregulated | expression of protein Q9I298 (putative 3-methylglutaconyl-ConA hydratase) (P. aeruginosa 1409 [2]; [5]): downregulated | integrity of bacterial membranes, PI staining at 4 × MIC (P. aeruginosa 1409 [3]; 4 × MIC (cathelicidin-BF 32 μg/mL, levofloxacin 64 μg/mL)): showed red fluorescence | integrity of bacterial membranes, PI staining at ¼ × MIC (P. aeruginosa 1409 [3]; ¼ × MIC (cathelicidin-BF 2 μg/mL, levofloxacin 4 μg/mL)): no red dyes were detected
SMILES: C[C@H]1COc2c(N3CCN(C)CC3)c(F)cc3c(=O)c(C(=O)O)cn1c23 [levofloxacin, reference compound]
expression of protein Q9HVA1 (acetolactate synthase isozyme III small subunit) (P. aeruginosa 1409 [2]; [4]): overexpressed | expression of protein Q9I5V3 (multifunctional CCA protein) (P. aeruginosa 1409 [2]; levofloxacin change not categorized as differentially expressed): downregulated
